Square brackets hold non-standard residues; d marks the D form. pGlu = O=C1CC[C@@H](C(=O)O)N1
What was measured:
cancer cells = settings: Gründker et al. 2004; cited from earlier work
[1] = system: MCF-7 breast cancer cell line; assay: Apoptosis assay, flow cytometric analysis of DNA degradation (propidium iodide); format: cell-based, human; settings: MCF-7, FIG. 1 (B)

## [D-Lys^6]GnRH-II ([pGlu]HWSH[dK]WYPG-NH2; SMILES NCCCC[C@@H](NC(=O)[C@H](Cc1c[nH]cn1)NC(=O)[C@H](CO)NC(=O)[C@H](Cc1c[nH]c2ccccc12)NC(=O)[C@H](Cc1c[nH]cn1)NC(=O)[C@@H]1CCC(=O)N1)C(=O)N[C@@H](Cc1c[nH]c2ccccc12)C(=O)N[C@@H](Cc1ccc(O)cc1)C(=O)N1CCC[C@H]1C(=O)NCC(N)=O) [GnRH-II agonist]
Cancer cells
  antiproliferative effects after GnRH-I receptor knock-out: still existing
[1]
  induction of apoptotic cell death by GnRH-II agonist: did not induce apoptotic cell death

From patent publication US8334258B2, “Method for induction and enhancement of apoptosis in tumor cells” (Georg-August-Universität Göttingen Stiftung Öffentlichen …, priority 2006, dated 2012)
